Experimental data taken from patent US20100298141A1, “SUBSTITUTED PYRIDINE N-OXIDE HERBICIDES” (E. I. DU PONT DE NEMOURS AND COMPANY, priority 2007, published 2010).

How the values were obtained:
pigweed = assay: Test C pre-/postemergence test; format: in vivo, Amaranthus retroflexus; conditions: for Plant response rating, Pigweed: 31 g ai/ha, scale 0 to 100 (0 no effect, 100 complete control)
Method in brief: (§1)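 Seeds were planted and treated preemergence with test chemical in a non-phytotoxic solvent mixture containing surfactant. Postemergence applications of the same formulation went onto plants 2 to 18 cm tall (1- to 4-leaf stage). A dash marks no test result.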

crabgrass [1] = assay: Test A pre-/postemergence greenhouse test; format: in vivo, Digitaria sanguinalis; conditions: for Crabgrass, Large plant response rating: 0 to 100 scale; for Plant response rating, Crabgrass, Large: 0 to 100 scale where 0 is no effect and 100 is complete control
Method in brief: (§2)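 Visual injury ratings against untreated controls, taken roughly ten days after treatment in greenhouse. Plants were sprayed postemergence at one- to two-leaf stage (2–10 cm tall); at the same time, seeded loam/sand soil received a directed preemergence spray. Formulation: non-phytotoxic solvent mixture with surfactant.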

umbrella sedge = assay: Test C flooded paddy test; format: in vivo, Cyperus difformis; conditions: Flood
Method in brief: (§3)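 Under a constant 3 cm flood, test compounds went directly into the paddy water. Following 13 to 15 days of greenhouse growth, treated species and controls were compared by eye.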

bermudagrass = assay: Test C pre-/postemergence test; format: in vivo, Cynodon dactylon; conditions: for Plant response rating, Bermudagrass: 31 g ai/ha
Method in brief: as §1

barnyardgrass [2] = assay: Test C flooded paddy test; format: in vivo, Echinochloa crus-galli; conditions: Flood
Method in brief: as §3

Goosegrass = assay: Test C pre-/postemergence test; format: in vivo, Eleusin indica; conditions: for Plant response rating, Goosegrass: 31 g ai/ha, scale 0 to 100 (0 no effect, 100 complete control)
Method in brief: as §1

crabgrass [3] = assay: Test C pre-/postemergence test; format: in vivo, Digitaria sanguinalis; conditions: for Plant response rating, Crabgrass, Large: 31 g ai/ha, scale 0 to 100 (0 no effect, 100 complete control)
Method in brief: as §1

Italian ryegrass = assay: Test C pre-/postemergence test; format: in vivo, Lolium multiflorum; conditions: for Plant response rating, Ryegrass, Italian: 31 g ai/ha, scale 0 to 100 (0 no effect, 100 complete control)
Method in brief: as §1

soybean = assay: Test C pre-/postemergence test; format: in vivo, Glycine max; conditions: for Plant response rating, Soybean: 31 g ai/ha, scale 0 to 100 (0 no effect, 100 complete control)
Method in brief: as §1

corn [4] = assay: Test A pre-/postemergence greenhouse test; format: in vivo, Zea mays; conditions: for Corn plant response rating: 0 to 100 scale; for Plant response rating, Corn: 0 to 100 scale where 0 is no effect and 100 is complete control
Method in brief: as §2

yellow nutsedge = assay: Test C pre-/postemergence test; format: in vivo, Cyperus esculentus; conditions: for Plant response rating, Nutsedge, Yellow: 31 g ai/ha, scale 0 to 100 (0 no effect, 100 complete control)
Method in brief: as §1

barnyardgrass [5] = assay: Test A pre-/postemergence greenhouse test; format: in vivo, Echinochloa crus-galli; conditions: for Barnyardgrass plant response rating: 0 to 100 scale; for Plant response rating, Barnyardgrass: 0 to 100 scale where 0 is no effect and 100 is complete control
Method in brief: as §2

corn [6] = assay: Test C pre-/postemergence test; format: in vivo, Zea mays; conditions: for Plant response rating, Corn: 31 g ai/ha, scale 0 to 100 (0 no effect, 100 complete control)
Method in brief: as §1

duck salad = assay: Test C flooded paddy test; format: in vivo, Heteranthera limosa; conditions: Flood
Method in brief: as §3

green foxtail = assay: Test C pre-/postemergence test; format: in vivo, Setaria viridis
Method in brief: as §1

johnsongrass = assay: Test C pre-/postemergence test; format: in vivo, Sorghum halepense; conditions: for Plant response rating, Johnsongrass: 31 g ai/ha, scale 0 to 100 (0 no effect, 100 complete control)
Method in brief: as §1

velvetleaf = assay: Test A pre-/postemergence greenhouse test; format: in vivo, Abutilon theophrasti; conditions: for Velvetleaf plant response rating: 0 to 100 scale; for Plant response rating, Velvetleaf: 0 to 100 scale where 0 is no effect and 100 is complete control
Method in brief: as §2

[7] = 62 g ai/ha, Preemergence, scale 0 to 100
[8] = 125 g ai/ha, preemergence, scale 0 (no effect) to 100 (complete control)
[9] = preemergence, 250 g ai/ha, scale 0 (no effect) to 100 (complete control)
[10] = Postemergence, 125 g ai/ha, 0 is no effect, 100 is complete control
[11] = Postemergence, 500 g ai/ha, 0 is no effect, 100 is complete control
[12] = Preemergence, 125 g ai/ha, 0 no effect, 100 complete control
[13] = 31 g ai/ha, scale 0 to 100 (0 no effect, 100 complete control)
[14] = 62 g ai/ha, scale 0 to 100, 0 no effect, 100 complete control, 13 to 15 days
[15] = 125 g ai/ha, scale 0 to 100, 0 no effect, 100 complete control, 13 to 15 days
[16] = 250 g ai/ha, scale 0 to 100, 0 no effect, 100 complete control, 13 to 15 days
[17] = 62 g ai/ha, Preemergence, scale 0 to 100 (0 no effect, 100 complete control)
[18] = Preemergence, scale 0 to 100 (0 no effect, 100 complete control)

SMILES: Cn1nc(C(F)(F)F)c(C(Cl)S(=O)(=O)c2cccc[n+]2[O-])c1OCC(F)(F)F (racemic) [Compound 36]
- Pigweed plant response rating (pigweed; [7]): 90
- Pigweed plant response rating (pigweed; [8]): 100
- Plant response rating, Pigweed (pigweed; Preemergence): 80
- Pigweed plant response rating (pigweed; [9]): 100
- Crabgrass, Large plant response rating (crabgrass [1]; [10]): 50
- Crabgrass, Large plant response rating (crabgrass [1]; [11]): 80
- Crabgrass, Large plant response rating (crabgrass [1]; [12]): 70
- Plant response rating, Crabgrass, Large (crabgrass [1]; Preemergence, 500 g ai/ha): 90
- Plant response rating, Sedge, Umbrella (umbrella sedge; [13]): 80
- Plant response rating, Sedge, Umbrella (umbrella sedge; [14]): 85
- Plant response rating, Sedge, Umbrella (umbrella sedge; [15]): 95
- Plant response rating, Sedge, Umbrella (umbrella sedge; [16]): 100
- Bermudagrass plant response rating (bermudagrass; [17]): 100
- Bermudagrass plant response rating (bermudagrass; [8]): 100
- Plant response rating, Bermudagrass (bermudagrass; [18]): 85
- Bermudagrass plant response rating (bermudagrass; [9]): 100
- Plant response rating, Barnyardgrass (barnyardgrass [2]; [13]): 0
- Plant response rating, Barnyardgrass (barnyardgrass [2]; [14]): 10
- Plant response rating, Barnyardgrass (barnyardgrass [2]; [15]): 25
- Plant response rating, Barnyardgrass (barnyardgrass [2]; [16]): 90
- Goosegrass plant response rating (Goosegrass; [7]): 100
- Goosegrass plant response rating (Goosegrass; [8]): 100
- Plant response rating, Goosegrass (Goosegrass; Preemergence): 85
- Goosegrass plant response rating (Goosegrass; [9]): 100
- Crabgrass, Large plant response rating (crabgrass [3]; [7]): 80
- Crabgrass, Large plant response rating (crabgrass [3]; [8]): 100
- Plant response rating, Crabgrass, Large (crabgrass [3]; Preemergence): 65
- Crabgrass, Large plant response rating (crabgrass [3]; [9]): 100
- Ryegrass, Italian plant response rating (Italian ryegrass; [7]): 98
- Ryegrass, Italian plant response rating (Italian ryegrass; [8]): 100
- Plant response rating, Ryegrass, Italian (Italian ryegrass; Preemergence): 30
- Ryegrass, Italian plant response rating (Italian ryegrass; [9]): 100
- Soybean plant response rating (soybean; [7]): 5
- Soybean plant response rating (soybean; [8]): 15
- Plant response rating, Soybean (soybean; Preemergence): 0
- Soybean plant response rating (soybean; [9]): 20
- Corn plant response rating (corn [4]; [10]): 0
- Corn plant response rating (corn [4]; [11]): 0
- Corn plant response rating (corn [4]; [12]): 0
- Plant response rating, Corn (corn [4]; Preemergence, 500 g ai/ha): 0
- Nutsedge, Yellow plant response rating (yellow nutsedge; [7]): 50
- Nutsedge, Yellow plant response rating (yellow nutsedge; [8]): 100
- Plant response rating, Nutsedge, Yellow (yellow nutsedge; Preemergence): 0
- Nutsedge, Yellow plant response rating (yellow nutsedge; [9]): 100
- Barnyardgrass plant response rating (barnyardgrass [5]; [10]): 40
- Barnyardgrass plant response rating (barnyardgrass [5]; [11]): 80
- Barnyardgrass plant response rating (barnyardgrass [5]; [12]): 100
- Plant response rating, Barnyardgrass (barnyardgrass [5]; Preemergence, 500 g ai/ha): 100
- Corn plant response rating (corn [6]; [7]): 40
- Corn plant response rating (corn [6]; [8]): 60
- Plant response rating, Corn (corn [6]; Preemergence): 0
- Corn plant response rating (corn [6]; [9]): 80
- Plant response rating, Ducksalad (duck salad; [13]): 85
- Plant response rating, Ducksalad (duck salad; [14]): 85
- Plant response rating, Ducksalad (duck salad; [15]): 90
- Plant response rating, Ducksalad (duck salad; [16]): 90
- Foxtail, Green plant response rating (green foxtail; [7]): 70
- Foxtail, Green plant response rating (green foxtail; [8]): 75
- Foxtail, Green plant response rating (green foxtail; [9]): 100
- Johnsongrass plant response rating (johnsongrass; [7]): 80
- Johnsongrass plant response rating (johnsongrass; [8]): 90
- Plant response rating, Johnsongrass (johnsongrass; Preemergence): 60
- Johnsongrass plant response rating (johnsongrass; [9]): 90
- Velvetleaf plant response rating (velvetleaf; [10]): 0
- Velvetleaf plant response rating (velvetleaf; [11]): 40
- Velvetleaf plant response rating (velvetleaf; [12]): 40
- Plant response rating, Velvetleaf (velvetleaf; Preemergence, 500 g ai/ha): 70

SMILES: CC(c1c(C(F)(F)F)nn(CC(F)(F)F)c1Cl)[S+]([O-])c1cccc[n+]1[O-] (centres unmarked) [Compound 46]
- Pigweed plant response rating (pigweed; [7]): 90
- Pigweed plant response rating (pigweed; [8]): 100
- Plant response rating, Pigweed (pigweed; Preemergence): 0
- Pigweed plant response rating (pigweed; [9]): 100
- Plant response rating, Crabgrass, Large (crabgrass [1]; Postemergence, 125 g ai/ha): 70
- Crabgrass, Large plant response rating (crabgrass [1]; [11]): 80
- Crabgrass, Large plant response rating (crabgrass [1]; [12]): 70
- Plant response rating, Crabgrass, Large (crabgrass [1]; Preemergence, 500 g ai/ha): 100
- Plant response rating, Sedge, Umbrella (umbrella sedge; [16]): 70
- Bermudagrass plant response rating (bermudagrass; [17]): 100
- Bermudagrass plant response rating (bermudagrass; [8]): 100
- Plant response rating, Bermudagrass (bermudagrass; [18]): 100
- Bermudagrass plant response rating (bermudagrass; [9]): 100
- Plant response rating, Barnyardgrass (barnyardgrass [2]; [14]): 10
- Plant response rating, Barnyardgrass (barnyardgrass [2]; [16]): 60
- Goosegrass plant response rating (Goosegrass; [7]): 100
- Goosegrass plant response rating (Goosegrass; [8]): 100
- Plant response rating, Goosegrass (Goosegrass; Preemergence): 98
- Goosegrass plant response rating (Goosegrass; [9]): 100
- Crabgrass, Large plant response rating (crabgrass [3]; [7]): 100
- Crabgrass, Large plant response rating (crabgrass [3]; [8]): 100
- Plant response rating, Crabgrass, Large (crabgrass [3]; Preemergence): 100
- Crabgrass, Large plant response rating (crabgrass [3]; [9]): 100
- Ryegrass, Italian plant response rating (Italian ryegrass; [7]): 55
- Ryegrass, Italian plant response rating (Italian ryegrass; [8]): 80
- Plant response rating, Ryegrass, Italian (Italian ryegrass; Preemergence): 0
- Ryegrass, Italian plant response rating (Italian ryegrass; [9]): 100
- Soybean plant response rating (soybean; [7]): 0
- Soybean plant response rating (soybean; [8]): 0
- Plant response rating, Soybean (soybean; Preemergence): 0
- Soybean plant response rating (soybean; [9]): 25
- Plant response rating, Corn (corn [4]; Postemergence, 125 g ai/ha): 0
- Corn plant response rating (corn [4]; [11]): 0
- Corn plant response rating (corn [4]; [12]): 0
- Plant response rating, Corn (corn [4]; Preemergence, 500 g ai/ha): 0
- Nutsedge, Yellow plant response rating (yellow nutsedge; [7]): 60
- Nutsedge, Yellow plant response rating (yellow nutsedge; [8]): 65
- Plant response rating, Nutsedge, Yellow (yellow nutsedge; Preemergence): 60
- Nutsedge, Yellow plant response rating (yellow nutsedge; [9]): 100
- Plant response rating, Barnyardgrass (barnyardgrass [5]; Postemergence, 125 g ai/ha): 70
- Barnyardgrass plant response rating (barnyardgrass [5]; [11]): 80
- Barnyardgrass plant response rating (barnyardgrass [5]; [12]): 80
- Plant response rating, Barnyardgrass (barnyardgrass [5]; Preemergence, 500 g ai/ha): 100
- Corn plant response rating (corn [6]; [7]): 0
- Corn plant response rating (corn [6]; [8]): 0
- Plant response rating, Corn (corn [6]; Preemergence): 0
- Corn plant response rating (corn [6]; [9]): 55
- Plant response rating, Ducksalad (duck salad; [14]): 10
- Plant response rating, Ducksalad (duck salad; [16]): 20
- Foxtail, Green plant response rating (green foxtail; [7]): 98
- Foxtail, Green plant response rating (green foxtail; [8]): 100
- Plant response rating, Foxtail, Green (green foxtail; Preemergence, 31 g ai/ha, scale 0 to 100 (0 no effect, 100 complete control)): 95
- Foxtail, Green plant response rating (green foxtail; [9]): 100
- Johnsongrass plant response rating (johnsongrass; [7]): 80
- Johnsongrass plant response rating (johnsongrass; [8]): 90
- Plant response rating, Johnsongrass (johnsongrass; Preemergence): 40
- Johnsongrass plant response rating (johnsongrass; [9]): 100
- Plant response rating, Velvetleaf (velvetleaf; Postemergence, 125 g ai/ha): 30
- Velvetleaf plant response rating (velvetleaf; [11]): 40
- Velvetleaf plant response rating (velvetleaf; [12]): 0
- Plant response rating, Velvetleaf (velvetleaf; Preemergence, 500 g ai/ha): 50
